Tested on: primary rat mixed cortical cells
Assay: In vitro myelination assay (MBP positive myelin strands, fold myelin pixels above background)
Assay type: cell-based
Conditions: Rattus norvegicus, relative to baseline of no added compound; for fold induction at 1 µM: 1.0 μM compound, read-out: Fold myelin pixels above background, 1.0 μM; for fold induction at 10 µM: 10.0 μM compound, read-out: Fold myelin pixels above background, 10.0 μM
Method in brief: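 Mixed cortical culture, P1 rat, 87,500-95,000 cells/well; compound present from seeding, refreshed days 6 and 10; 14 d, 37 °C, 5% CO2. Day 14: PFA fix, anti-MBP + Hoechst. Read-out: fold MBP myelin pixels over untreated, tested at 1.0 and 10.0 μM.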

SMILES: Fc1ccc(-n2cnc(Nc3cc(F)cc(N4CCCC4)c3)n2)cc1 [Compound 167, 1-(4-fluorophenyl)-N-(3-fluoro-5-pyrrolidin-1-yl-phenyl)-1,2,4-triazol-3-amine]
- fold induction at 1 µM: ≤ 1
- fold induction at 10 µM: 100 to 1000

SMILES: Brc1cc(Nc2ncn(-c3ccccc3)n2)cc(N2CCOCC2)c1 [Compound 168, N-(3-bromo-5-morpholino-phenyl)-1-phenyl-1,2,4-triazol-3-amine]
- fold induction at 1 µM: 1000 to 10000
- fold induction at 10 µM: 1000 to 10000

SMILES: Cc1cc(Nc2ncn(-c3ccc(F)c(F)c3)n2)cc(N2CCC(C3COC3)CC2)c1 [Compound 169, 1-(3,4-difluorophenyl)-N-[3-methyl-5-[4-(oxetan-3-yl)-1-piperidyl]phenyl]-1,2,4-triazol-3-amine]
- fold induction at 1 µM: 10 to 100
- fold induction at 10 µM: 1 to 10

SMILES: Fc1cc(F)cc(-n2cnc(Nc3cc(C4CC4)nc(N4CCCC4)c3)n2)c1 [Compound 170, 2-cyclopropyl-N-[1-(3,5-difluorophenyl)-1,2,4-triazol-3-yl]-6-pyrrolidin-1-yl-pyridin-4-amine]
- fold induction at 1 µM: 10 to 100
- fold induction at 10 µM: 100 to 1000

SMILES: Cc1cc(Nc2ncn(-c3cc(F)cc(F)c3)n2)cc(N2CC3(COC3)C2)c1 [Compound 171, 1-(3,5-difluorophenyl)-N-[3-methyl-5-(6-oxa-2-azaspiro[3.3]heptan-2-yl)phenyl]-1,2,4-triazol-3-amine]
- fold induction at 1 µM: 10 to 100
- fold induction at 10 µM: 100 to 1000

SMILES: Cc1cc(Nc2ncn(-c3ccccc3)n2)cc(N2CCN(C3CCCOC3)CC2)c1 (stereo not shown) [Compound 172, N-[3-methyl-5-(4-tetrahydropyran-3-ylpiperazin-1-yl)phenyl]-1-phenyl-1,2,4-triazol-3-amine]
- fold induction at 1 µM: 1000 to 10000
- fold induction at 10 µM: 1 to 10

SMILES: CCc1cc(Nc2ncn(-c3cc(F)cc(F)c3)n2)cc(N2CC(N3CCOCC3)C2)c1 [Compound 173, 1-(3,5-difluorophenyl)-N-[3-ethyl-5-(3-morpholinoazetidin-1-yl)phenyl]-1,2,4-triazol-3-amine]
- fold induction at 1 µM: 100 to 1000
- fold induction at 10 µM: 10 to 100

SMILES: Cc1cc(Nc2ncn(-c3ccncn3)n2)cc(N2CCN(C3COC3)CC2)c1 [Compound 174, N-[3-methyl-5-[4-(oxetan-3-yl)piperazin-1-yl]phenyl]-1-pyrimidin-4-yl-1,2,4-triazol-3-amine]
- fold induction at 1 µM: 1 to 10
- fold induction at 10 µM: 10 to 100

SMILES: Fc1cccc(-n2cnc(Nc3cc(N4CCN(C5COC5)CC4)cc(C(F)(F)F)c3)n2)c1 [Compound 175, 1-(3-fluorophenyl)-N-[3-[4-(oxetan-3-yl)piperazin-1-yl]-5-(trifluoromethyl)phenyl]-1,2,4-triazol-3-amine]
- fold induction at 1 µM: 1000 to 10000
- fold induction at 10 µM: ≤ 1

SMILES: Cc1cc(Nc2ncn(-c3ccncn3)n2)cc(N2CCN(C3CC3)CC2)c1 [Compound 176, N-[3-(4-cyclopropylpiperazin-1-yl)-5-methyl-phenyl]-1-pyrimidin-4-yl-1,2,4-triazol-3-amine]
- fold induction at 1 µM: 100 to 1000
- fold induction at 10 µM: 100 to 1000

SMILES: Fc1cc(Nc2ncn(-c3ccc(F)cc3F)n2)cc(NC2CNC2)c1 [Compound 177, N1-(azetidin-3-yl)-N3-[1-(2,4-difluorophenyl)-1,2,4-triazol-3-yl]-5-fluoro-benzene-1,3-diamine]
- fold induction at 1 µM: ≤ 1
- fold induction at 10 µM: ≤ 1

SMILES: Cc1cc(Nc2ncn(-c3cc(F)cc(F)c3)n2)cc(O[C@@H]2CCN(C3COC3)C2)c1 [Compound 178, 1-(3,5-difluorophenyl)-N-[3-methyl-5-[(3R)-1-(oxetan-3-yl)pyrrolidin-3-yl]oxy-phenyl]-1,2,4-triazol-3-amine]
- fold induction at 1 µM: 1000 to 10000
- fold induction at 10 µM: 1 to 10

SMILES: Cc1cc(Nc2ncn(-c3ccccc3)n2)cc(N2CCCN(C)CC2)c1 [Compound 179, N-[3-methyl-5-(4-methyl-1,4-diazepan-1-yl)phenyl]-1-phenyl-1,2,4-triazol-3-amine]
- fold induction at 1 µM: 100 to 1000
- fold induction at 10 µM: ≤ 1

SMILES: Cc1cc(Nc2ncn(-c3ccncn3)n2)cc(C2CCCN(C3COC3)C2)c1 (stereo not shown) [Compound 180, N-[3-methyl-5-[1-(oxetan-3-yl)-3-piperidyl]phenyl]-1-pyrimidin-4-yl-1,2,4-triazol-3-amine]
- fold induction at 1 µM: 100 to 1000
- fold induction at 10 µM: ≤ 1

SMILES: Fc1cc(Nc2ncn(-c3cccc(C(F)(F)F)c3)n2)cc(N2CCOCC2)c1 [Compound 181, N-(3-fluoro-5-morpholino-phenyl)-1-[3-(trifluoromethyl)phenyl]-1,2,4-triazol-3-amine]
- fold induction at 1 µM: ≤ 1
- fold induction at 10 µM: 100 to 1000

SMILES: COCCCN1CCC(Nc2cc(C)cc(Nc3ncn(-c4ccccc4)n3)c2)CC1 [Compound 182, N1-[1-(3-methoxypropyl)-4-piperidyl]-5-methyl-N3-(1-phenyl-1,2,4-triazol-3-yl)benzene-1,3-diamine]
- fold induction at 1 µM: 1000 to 10000
- fold induction at 10 µM: 1 to 10

SMILES: COc1cc(Nc2ncn(-c3ccc(F)c(F)c3)n2)cc(N2CCN(C3COC3)CC2)c1 [Compound 183, 1-(3,4-difluorophenyl)-N-[3-methoxy-5-[4-(oxetan-3-yl)piperazin-1-yl]phenyl]-1,2,4-triazol-3-amine]
- fold induction at 1 µM: 100 to 1000
- fold induction at 10 µM: 10 to 100

SMILES: Fc1cc(-n2cnc(Nc3cc(C4CC4)cc(N4CCN(C5COC5)CC4)c3)n2)ccn1 [Compound 184, N-[3-cyclopropyl-5-[4-(oxetan-3-yl)piperazin-1-yl]phenyl]-1-(2-fluoro-4-pyridyl)-1,2,4-triazol-3-amine]
- fold induction at 1 µM: 10 to 100
- fold induction at 10 µM: 1 to 10

SMILES: Cc1cc(Nc2ncn(-c3cc(F)cc(F)c3)n2)cc(N2C[C@H]3C[C@@H]2CN3C2COC2)c1 [Compound 185, 1-(3,5-difluorophenyl)-N-[3-methyl-5-[(1R,4R)-2-(oxetan-3-yl)-2,5-diazabicyclo[2.2.1]heptan-5-yl]phenyl]-1,2,4-triazol-3-amine]
- fold induction at 1 µM: 100 to 1000
- fold induction at 10 µM: 1 to 10

SMILES: Cc1cc(Nc2ncn(-c3ccc(C#N)cc3)n2)cc(N2CCCC2)c1 [Compound 186, 4-[3-(3-methyl-5-pyrrolidin-1-yl-anilino)-1,2,4-triazol-1-yl]benzonitrile]
- fold induction at 1 µM: 10 to 100
- fold induction at 10 µM: 10 to 100

SMILES: CCN(C)Cc1cc(F)cc(-n2cnc(Nc3cc(C)cc(N4CCN(C5COC5)CC4)c3)n2)c1 [Compound 187, 1-[3-[[ethyl(methyl)amino]methyl]-5-fluoro-phenyl]-N-[3-methyl-5-[4-(oxetan-3-yl)piperazin-1-yl]phenyl]-1,2,4-triazol-3-amine]
- fold induction at 1 µM: 100 to 1000
- fold induction at 10 µM: ≤ 1

SMILES: Cc1cc(Nc2ncn(-c3cccc(F)c3)n2)cc(NC2CCN(C3COC3)C2)c1 (stereo not shown) [Compound 188, N3-[1-(3-fluorophenyl)-1,2,4-triazol-3-yl]-5-methyl-N1-[1-(oxetan-3-yl)pyrrolidin-3-yl]benzene-1,3-diamine]
- fold induction at 1 µM: 100 to 1000
- fold induction at 10 µM: ≤ 1

SMILES: Fc1cc(-n2cnc(Nc3cc(C(F)F)cc(N4CCN(C5COC5)CC4)c3)n2)ccn1 [Compound 189, N-[3-(difluoromethyl)-5-[4-(oxetan-3-yl)piperazin-1-yl]phenyl]-1-(2-fluoro-4-pyridyl)-1,2,4-triazol-3-amine]
- fold induction at 1 µM: 100 to 1000
- fold induction at 10 µM: ≤ 1

SMILES: Cc1cc(Nc2ncn(-c3cccc(C(F)(F)F)c3)n2)cc(N2CCCC2)c1 [Compound 190, N-(3-methyl-5-pyrrolidin-1-yl-phenyl)-1-[3-(trifluoromethyl)phenyl]-1,2,4-triazol-3-amine]
- fold induction at 1 µM: 1 to 10
- fold induction at 10 µM: ≤ 1

SMILES: Cc1cc(Nc2ncn(-c3ccc(C(F)(F)F)cc3)n2)cc(N2CCN(C3COC3)CC2)c1 [Compound 191]
- fold induction at 1 µM: ≤ 1
- fold induction at 10 µM: 1 to 10

SMILES: Cc1cc(Nc2ncn(-c3cccc(F)c3)n2)cc(NC2CCN(C3COC3)CC2)c1 [Compound 192, N3-[1-(3-fluorophenyl)-1,2,4-triazol-3-yl]-5-methyl-N1-[1-(oxetan-3-yl)-4-piperidyl]benzene-1,3-diamine]
- fold induction at 1 µM: 100 to 1000
- fold induction at 10 µM: ≤ 1

SMILES: Cc1cc(Nc2ncn(-c3cc(F)cc(F)c3)n2)cc(C2(F)CCN(C3COC3)C2)c1 (stereo not shown) [Compound 193, 1-(3,5-difluorophenyl)-N-[3-[3-fluoro-1-(oxetan-3-yl)pyrrolidin-3-yl]-5-methyl-phenyl]-1,2,4-triazol-3-amine]
- fold induction at 1 µM: 100 to 1000
- fold induction at 10 µM: 100 to 1000

SMILES: CC(=O)N1CCC(c2cc(C)cc(Nc3ncn(-c4ccccc4)n3)c2)CC1 [Compound 194, 1-[4-[3-methyl-5-[(1-phenyl-1,2,4-triazol-3-yl)amino]phenyl]-1-piperidyl]ethanone]
- fold induction at 1 µM: 1000 to 10000
- fold induction at 10 µM: ≤ 1

SMILES: CCOC(=O)N1CCN(c2cc(C)cc(Nc3ncn(-c4cc(F)cc(F)c4)n3)c2)CC1 [Compound 196, ethyl 4-[3-[[1-(3,5-difluorophenyl)-1,2,4-triazol-3-yl]amino]-5-methyl-phenyl]piperazine-1-carboxylate]
- fold induction at 1 µM: ≤ 1
- fold induction at 10 µM: ≤ 1

SMILES: Cc1cc(Nc2ncn(-c3cc(F)cc(F)c3)n2)cc(N(C)C2COC2)c1 [Compound 197, N3-[1-(3,5-difluorophenyl)-1,2,4-triazol-3-yl]-N1,5-dimethyl-N1-(oxetan-3-yl)benzene-1,3-diamine]
- fold induction at 1 µM: 100 to 1000
- fold induction at 10 µM: 100 to 1000

SMILES: CCc1cc(Nc2ncn(-c3ccc(F)c(F)c3)n2)cc(N2CC(N3CCOCC3)C2)c1 [Compound 198, 1-(3,4-difluorophenyl)-N-[3-ethyl-5-(3-morpholinoazetidin-1-yl)phenyl]-1,2,4-triazol-3-amine]
- fold induction at 1 µM: 100 to 1000
- fold induction at 10 µM: 10 to 100

SMILES: Cc1cc(Nc2ncn(-c3cc(F)cc(F)c3)n2)cc(N2CCN(C3CCCOC3)CC2)c1 (stereo not shown) [Compound 199, 1-(3,5-difluorophenyl)-N-[3-methyl-5-(4-tetrahydropyran-3-ylpiperazin-1-yl)phenyl]-1,2,4-triazol-3-amine]
- fold induction at 1 µM: 100 to 1000
- fold induction at 10 µM: 100 to 1000

— patent US10766869B2, “Triazoles for the treatment of demyelinating dieases” (Vertex Pharmaceuticals Incorporated, priority 2015, dated 2020)
